Reference: US20140249191A1, “Compositions for Controlling Vascularization in Ophthalmological and Dermatological Diseases” (AVIENNE PHARMACEUTICALS GMBH, priority 2011, published 2014)
Entries after “also recorded” stand apart in the source; their conditions may differ.

How the values were obtained:
[1] = tested on: chorioallantoic membrane vascularisation; assay: Chorioallantoic membrane (CAM) assay; format: in vivo, chicken embryo; conditions: applied on CAM day 6 p.f., incubated until day 11 p.f.
Text: Local Application of AV-398 inhibits in vivo angiogenesis as evidenced by the chicken egg chorioallantoic membrane model. The chorioallantoic membrane (CAM) of the developing chicken embryo serves as an alternative to the traditional mammalian in vivo models, and further corroborates the findings in pigs described above and has clear relevance for the treatment e.g. dermatological indications linked to neoangiogenesis. AV-398 was applied over 5 days.
Eggs were opened on day 6 post fertilization (p.f.). Substances (200 μl respectively) were applied on the CAM on day 6 p.f. and incubated until day 11 p.f. As a vehicle control, 1% DMSO in PBS (phosphate-buffered saline solution pH 7.4) without AV-398 was used. Eggs were inspected daily by stereo-microscopy and pictures were taken (6× magnification).

[2] = tested on: SAOS-2, Hela, HT29, U87MG and SK-N-DZ cells; assay: Cytotoxic activity in cancer cell lines (cell numbers); format: cell-based; conditions: up to 20 μM; uncoated dishes or coated with vitronectin or fibrinogen
Protocol: For example, cytotoxic activity of AV-398 was determined in several cancer cell lines (SAOS-2, Hela, HT29, U87MG and SK-N-DZ cells) by assessing cell numbers after treating cell lines with varying concentration of up to 20 μM. Experiments were performed either on uncoated dishes, or on dishes coated with vitronectin or fibrinogen. In addition, tumor cell lines were treated in parallel with echistatin (Gan Z R et al (1998)). […] Similar data were recently published showing cytotoxic activity also only against MDA-MB-435 breast cancer cells (Dayam R et al, 2006).

αvβ3-receptor = αvβ3-receptor (Homo sapiens, UniProt P05106+P06756); conditions: Dayam et al, 2006; cited from earlier work
Chain of αvβ3-receptor (P06756 31-889 limits assumed): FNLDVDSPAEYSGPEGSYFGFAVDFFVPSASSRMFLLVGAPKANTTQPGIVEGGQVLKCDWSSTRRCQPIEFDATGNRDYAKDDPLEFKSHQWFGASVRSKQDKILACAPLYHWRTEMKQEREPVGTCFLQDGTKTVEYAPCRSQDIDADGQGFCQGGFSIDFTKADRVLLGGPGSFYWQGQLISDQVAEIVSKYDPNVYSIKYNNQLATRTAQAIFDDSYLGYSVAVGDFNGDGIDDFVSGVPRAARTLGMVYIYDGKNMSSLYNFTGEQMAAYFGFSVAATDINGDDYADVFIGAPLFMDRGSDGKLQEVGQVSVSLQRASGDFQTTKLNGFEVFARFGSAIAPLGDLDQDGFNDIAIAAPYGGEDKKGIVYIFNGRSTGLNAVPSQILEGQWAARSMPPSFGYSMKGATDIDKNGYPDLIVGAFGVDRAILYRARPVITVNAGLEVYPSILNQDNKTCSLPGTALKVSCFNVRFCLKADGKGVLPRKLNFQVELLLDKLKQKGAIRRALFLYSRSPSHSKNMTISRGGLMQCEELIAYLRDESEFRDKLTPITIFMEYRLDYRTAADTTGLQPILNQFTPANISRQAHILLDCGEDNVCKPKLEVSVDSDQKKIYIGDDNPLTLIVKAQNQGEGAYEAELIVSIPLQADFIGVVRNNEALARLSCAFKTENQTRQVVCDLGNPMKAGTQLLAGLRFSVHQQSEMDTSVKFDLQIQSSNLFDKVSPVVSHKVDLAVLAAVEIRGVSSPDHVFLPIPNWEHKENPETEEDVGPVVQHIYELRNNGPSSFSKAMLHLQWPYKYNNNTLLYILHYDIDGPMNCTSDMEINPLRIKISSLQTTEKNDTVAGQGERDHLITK
Chain of αvβ3-receptor (P06756 891-1048 partner limits assumed): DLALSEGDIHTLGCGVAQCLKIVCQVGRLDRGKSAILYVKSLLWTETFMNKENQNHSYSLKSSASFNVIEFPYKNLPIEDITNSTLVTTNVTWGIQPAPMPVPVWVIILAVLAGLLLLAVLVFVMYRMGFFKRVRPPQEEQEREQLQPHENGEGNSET
Chain of αvβ3-receptor (P05106 27-788): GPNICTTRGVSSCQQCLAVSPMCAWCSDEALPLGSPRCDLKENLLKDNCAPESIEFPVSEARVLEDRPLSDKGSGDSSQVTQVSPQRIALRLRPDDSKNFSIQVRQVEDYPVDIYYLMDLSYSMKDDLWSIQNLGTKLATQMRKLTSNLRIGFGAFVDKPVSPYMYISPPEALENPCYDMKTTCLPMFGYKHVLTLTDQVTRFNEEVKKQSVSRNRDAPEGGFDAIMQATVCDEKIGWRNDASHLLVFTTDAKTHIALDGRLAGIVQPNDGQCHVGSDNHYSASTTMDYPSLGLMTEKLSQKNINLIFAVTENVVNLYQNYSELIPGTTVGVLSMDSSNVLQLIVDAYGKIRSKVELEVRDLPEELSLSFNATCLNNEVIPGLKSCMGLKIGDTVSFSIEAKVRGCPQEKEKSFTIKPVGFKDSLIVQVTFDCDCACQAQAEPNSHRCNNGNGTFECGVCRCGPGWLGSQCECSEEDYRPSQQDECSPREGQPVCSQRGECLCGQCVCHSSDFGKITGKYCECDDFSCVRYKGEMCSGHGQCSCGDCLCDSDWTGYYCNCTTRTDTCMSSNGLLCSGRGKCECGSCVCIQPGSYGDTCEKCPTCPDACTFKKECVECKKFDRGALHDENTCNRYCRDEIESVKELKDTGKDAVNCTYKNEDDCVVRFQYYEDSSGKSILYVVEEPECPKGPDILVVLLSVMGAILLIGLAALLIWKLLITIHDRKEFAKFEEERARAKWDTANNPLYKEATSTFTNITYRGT

ocular angiogenesis = assay: Conjunctival incision ocular angiogenesis model; format: in vivo, white pigs; conditions: pigs, eye drops 100 μg/ml
Text: AV-398 inhibits ocular angiogenesis in vivo in a widely accepted large animal model. The cornea is an ideal model system for angiogenesis in general, and more specifically for angiogenesis of the eye. The corneal angiogenesis assay is one of the most widely used in vivo assay for the evaluation of factors influencing angiogenesis (Auerbach R, 2003, Thiele W, 2006). One reason that makes the cornea an ideal object for observing neovascularisation is its normal lack of vascularity, maintained by different molecular mechanisms. New vessels can easily be identified by visual inspection alone and quantified with the help of computerized image analysis programs. The effect of an ophthalmological formulation of AV-398 after a conjunctival insult with subsequent angiogenesis in a large animal model was investigated in order to test whether the in vitro data, such as anti-proliferative effects on human endothelial cells, could be reproduced in vivo. Six white pigs weighing 10 to 15 kg were included. First, corneae and conjunctivae were anaesthesized by local application of lidocaine 4%. Then, an incision of 0.5 cm length through the conjunctival tunica sclerae to the substantia propria was placed in parallel to the dorsal corneal limbus at a distance of approximately 2 mm. The animals were treated as follows. […]

[3] = tested on: endothelial cells of different origin (lung, lymphatics and umbilical); assay: Endothelial cell proliferation assay (direct cell counting); format: cell-based, human
Protocol: Primary endothelial cell lines (HMVEC-dLyAd—human dermal lymphatic microvascular endothelial cells (EC), dermal blood microvascular EC, HMVEC-LB lung blood microvascular EC, HMVEC-C cardiac human microvascular endothelial cells and MVEC-d—dermal microvascular EC) are from Cambrex Bio Science (Cambrex Bio Science Walkersville Inc., Walkersville, Md., USA). Cell lines are cultured according to the manufacturer's recommendations.
For proliferation assays, cells are seeded in 24- to 96-well plates in medium at different concentrations according to the cell type. After 24 hours, the medium is removed and replaced with fresh medium containing increasing concentrations of the compounds. The plates are then incubated for additional 24 to 72 hours, depending on the type of the experiment. Cells are then trypsinized and collected for direct counting. Results are plotted and expressed as means (±SE) for each compound and for a given concentration.

In the case of `CCOc1cc(C=C2S/C(=N/c3ccc(C(=O)O)cc3)N(C)C2=O)ccc1O` (stereo in doubt) [AV-398, 4-({5-[(E)-1-(3-ethoxy-4-hydroxyphenyl)methylidene]-3-methyl-4-oxo-1,3-thiazolan-2-yliden}amino)benzoic acid], the “vascularisation of chicken embryo CAM versus vehicle control” value [1] is listed as “markedly decreased vascularisation; also recorded: significant reduction of vascularisation”, the “effects on cancer cell lines (cytotoxic activity)” value [2] is listed as “no meanigful effects” and the avβ3 binding affinity (αvβ3-receptor) is listed as 240 nM. For the same compound, the “bleeding surrounding the incision immediately after treatment” value (ocular angiogenesis) was “marked diffuse bleeding”, the “neoangiogenesis on treated conjunctivae versus control-treated eyes” value (ocular angiogenesis; topical after incision) was “diminished neoangiogenesis” and the “antiproliferative effect against endothelial cells” value [3] was “strong antiproliferative effect”.
